Experiments:
[1] = target: T1, SarD (sulfoacetaldehyde reductase) (Bilophila wadsworthia, UniProt E5Y946); assay: NADH-dependent reduction to isethionate; assay type: biochemical
T1 construct: His-tagged, E. coli Rosetta 2 DE3

[2] = target: T2, AdhE (CoA-acylating aldehyde dehydrogenase) (Bilophila wadsworthia, UniProt E5Y379); assay: conversion to acetyl-CoA; assay type: biochemical; conditions: CoASH
T2 construct: His-tagged, E. coli BL21
T2 sequence (E5Y379 1-484): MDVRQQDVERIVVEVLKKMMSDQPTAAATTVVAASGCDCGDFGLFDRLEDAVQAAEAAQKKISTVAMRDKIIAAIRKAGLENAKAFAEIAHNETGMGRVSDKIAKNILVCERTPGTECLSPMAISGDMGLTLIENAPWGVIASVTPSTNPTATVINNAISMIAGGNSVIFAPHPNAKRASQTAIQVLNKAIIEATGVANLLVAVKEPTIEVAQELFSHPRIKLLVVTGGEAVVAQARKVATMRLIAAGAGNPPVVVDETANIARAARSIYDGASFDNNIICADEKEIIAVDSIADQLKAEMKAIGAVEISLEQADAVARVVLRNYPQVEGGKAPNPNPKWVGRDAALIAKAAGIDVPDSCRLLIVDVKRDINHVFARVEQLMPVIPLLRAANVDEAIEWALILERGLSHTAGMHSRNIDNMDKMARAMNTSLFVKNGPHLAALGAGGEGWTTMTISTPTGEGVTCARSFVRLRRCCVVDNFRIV

[3] = target: T3, IslB (GRE-activating enzyme) (Bilophila wadsworthia, UniProt E5Y377); assay: glycyl radical installation on IslA, EPR; assay type: biochemical; conditions: anoxic, acriflavine as photosensitizer
T3 construct: His-tagged, E. coli BL21(DE3) delta-iscR::kan, anoxic purification, reconstituted, reduced with dithionite
T3 sequence (E5Y377 whole entry): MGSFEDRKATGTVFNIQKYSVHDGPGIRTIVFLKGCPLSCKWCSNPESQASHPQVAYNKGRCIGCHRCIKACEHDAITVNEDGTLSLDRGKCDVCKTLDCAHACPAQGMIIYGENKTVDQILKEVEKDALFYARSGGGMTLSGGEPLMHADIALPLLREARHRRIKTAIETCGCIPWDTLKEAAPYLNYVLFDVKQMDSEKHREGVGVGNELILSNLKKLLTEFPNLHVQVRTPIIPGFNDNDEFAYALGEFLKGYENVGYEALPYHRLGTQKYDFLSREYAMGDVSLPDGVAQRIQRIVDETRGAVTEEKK
T3 sequence (E5Y378 whole entry, further chain): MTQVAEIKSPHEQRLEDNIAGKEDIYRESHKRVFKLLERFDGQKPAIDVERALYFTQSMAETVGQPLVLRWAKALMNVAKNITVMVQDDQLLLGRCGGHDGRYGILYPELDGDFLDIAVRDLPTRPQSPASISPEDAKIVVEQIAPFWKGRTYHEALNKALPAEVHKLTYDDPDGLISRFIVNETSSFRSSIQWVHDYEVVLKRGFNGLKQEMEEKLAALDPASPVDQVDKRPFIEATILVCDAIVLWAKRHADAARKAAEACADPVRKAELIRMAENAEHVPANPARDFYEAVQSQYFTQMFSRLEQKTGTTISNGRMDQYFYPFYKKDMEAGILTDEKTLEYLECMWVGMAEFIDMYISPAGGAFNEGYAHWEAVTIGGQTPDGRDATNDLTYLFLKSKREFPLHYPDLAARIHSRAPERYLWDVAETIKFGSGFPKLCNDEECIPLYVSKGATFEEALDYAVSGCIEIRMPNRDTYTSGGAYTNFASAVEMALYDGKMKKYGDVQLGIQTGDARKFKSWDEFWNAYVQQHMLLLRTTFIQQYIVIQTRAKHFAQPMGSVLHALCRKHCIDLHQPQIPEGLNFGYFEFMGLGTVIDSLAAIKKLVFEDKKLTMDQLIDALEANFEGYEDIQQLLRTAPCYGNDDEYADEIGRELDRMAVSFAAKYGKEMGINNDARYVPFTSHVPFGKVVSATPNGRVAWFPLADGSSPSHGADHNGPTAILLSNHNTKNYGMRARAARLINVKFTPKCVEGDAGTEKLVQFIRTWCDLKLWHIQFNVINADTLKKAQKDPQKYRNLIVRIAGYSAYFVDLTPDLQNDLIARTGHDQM

[4] = target: T4, Tpa (taurine:pyruvate aminotransferase) (Bilophila wadsworthia, UniProt E5Y945); assay: deamination to sulfoacetaldehyde; LC-MS; assay type: biochemical
T4 construct: His-tagged, E. coli Rosetta 2 DE3
T4 sequence (E5Y945 1-456): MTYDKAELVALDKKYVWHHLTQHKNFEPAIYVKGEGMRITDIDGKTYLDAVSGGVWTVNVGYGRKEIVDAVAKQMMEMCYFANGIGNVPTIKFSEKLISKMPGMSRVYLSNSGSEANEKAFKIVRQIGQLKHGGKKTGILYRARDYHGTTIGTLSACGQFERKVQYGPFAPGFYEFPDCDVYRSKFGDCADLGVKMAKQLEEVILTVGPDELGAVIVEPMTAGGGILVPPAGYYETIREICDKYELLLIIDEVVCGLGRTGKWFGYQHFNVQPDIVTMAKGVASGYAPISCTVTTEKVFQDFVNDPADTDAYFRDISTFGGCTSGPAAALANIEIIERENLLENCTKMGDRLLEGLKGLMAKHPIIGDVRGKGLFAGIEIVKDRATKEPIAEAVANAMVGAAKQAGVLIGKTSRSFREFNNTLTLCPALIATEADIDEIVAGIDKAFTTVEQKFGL

[5] = system: O=S(=O)(O)CCO; assay: purified protein; conditions: anoxic; IslB-activated enzyme; NADH in coupling assay
[6] = substrate: O=S(=O)(O)CCO; assay: coupled spectrophotometric assay with yeast alcohol dehydrogenase; assay type: biochemical, Desulfovibrio desulfuricans; conditions: anoxic; activated enzyme
Description: coupled spectrophotometric assay with yeast alcohol dehydrogenase on GRE IslA of D. desulfuricans DSM642 | selectivity for the cleavage of isethionate to sulfite and acetaldehyde, but a modest apparent kcat/Km

T1 sequence (E5Y946 whole entry): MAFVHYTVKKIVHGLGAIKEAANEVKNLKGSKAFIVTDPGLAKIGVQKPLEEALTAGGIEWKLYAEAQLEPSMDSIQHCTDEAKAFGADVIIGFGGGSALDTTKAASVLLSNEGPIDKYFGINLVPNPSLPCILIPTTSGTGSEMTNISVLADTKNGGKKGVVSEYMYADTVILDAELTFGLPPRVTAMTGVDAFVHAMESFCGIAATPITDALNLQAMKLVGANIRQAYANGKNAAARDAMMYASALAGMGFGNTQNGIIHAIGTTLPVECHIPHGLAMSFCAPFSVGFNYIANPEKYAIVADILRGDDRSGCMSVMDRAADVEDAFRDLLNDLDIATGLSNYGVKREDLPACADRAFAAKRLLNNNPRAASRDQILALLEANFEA

NC(=O)C1=CN([C@@H]2O[C@H](COP(=O)(O)OP(=O)(O)OC[C@H]3O[C@@H](n4cnc5c(N)ncnc54)[C@H](O)[C@@H]3O)[C@@H](O)[C@H]2O)C=CC1 [NADH]
NADH-dependent reduction to isethionate ([1]; sulfoacetaldehyde): SarD reduces sulfoacetaldehyde to isethionate in an NADH-dependent manner

NC(=O)c1ccc[n+]([C@@H]2O[C@H](COP(=O)(O)OP(=O)(O)OC[C@H]3O[C@@H](n4cnc5c(N)ncnc54)[C@H](O)[C@@H]3O)[C@@H](O)[C@H]2O)c1 [NAD^+]
conversion to acetyl-CoA ([2]; acetaldehyde): it preferred NAD^+ over NADP^+

C[S+](CC[C@H](N)C(=O)O)C[C@H]1O[C@@H](n2cnc3c(N)ncnc32)[C@H](O)[C@@H]1O (some centres unmarked) [SAM]
glycyl radical installation on IslA, EPR [3]: incubated with the purified GRE IslA in the presence of SAM and acriflavine

CC=O [acetaldehyde]
conversion to acetyl-CoA ([2]; NAD+): converted acetaldehyde to acetyl-CoA only in the presence of CoASH and NAD^+

CC(=O)C(=O)O [pyruvate]
deamination to sulfoacetaldehyde; LC-MS ([4]; taurine): Tpa catalyzes the deamination of taurine with pyruvate to generate sulfoacetaldehyde and alanine

O=CCS(=O)(=O)O [sulfoacetaldehyde]
NADH-dependent reduction to isethionate ([1]; NADH): SarD reduces sulfoacetaldehyde to isethionate in an NADH-dependent manner

NCCS(=O)(=O)O [taurine, 2-aminoethanesulfonate]
deamination to sulfoacetaldehyde; LC-MS ([4]; pyruvate): Tpa catalyzes the deamination of taurine with pyruvate to generate sulfoacetaldehyde and alanine

IslA (isethionate sulfite-lyase) (Bilophila wadsworthia 3_1_6)
Km [5]: 8.1 ± 0.8 mM
kcat [5]: 14 ± 0.4 s⁻¹

B1: GRE IslA of D. desulfuricans DSM642 (Desulfovibrio desulfuricans ATCC 27774) (protein)
chain: MSMTTCECRSPQEQRLYDKIEGREDRFRKTHPRVFRLLERFEGQKPRIDIERALYFTQSMQETEGQPLVLRWAKALMHIARNMTVYVQEDQLLLGRAGCDGRYGILYPELDGDFLDIAVRDLPTRKTSPATITPEDARRVVEEIAPYWKGKTYHEALNAALPAEVHKLTYDDPEGLISRFIVNETSSFRSSIQWVHDYEKILKRGFNSIKKEAREKLAALDPLSAKDDREKRPFLEAVMIVCDAIVLWAKRHAVLAREMAEKESDPVRKAELLRMAENAEHVPGEPARDFWEACQSQWFTQMFSRIEQKTGTTISNGRMDQYFQPYYKQDREAGKITEAQAMELLECMWVGMAEFIDMYISPTGGAFNEGYAHWEAVTVGGQTPDGRDASNDLTYLILKSKREFPLHYPDLAARIHSRAPERYLWDVAETIKYGSGFPKLINDEEIVPLYVSKGATFEEALDYAVSGCTEARMPNRDTYTSGGAYINFAAAVEMVLRNGRMKKYGDQKLGVETGDPRSFTTWDQFWNAYVEQHLLFLKTAFTQQYIINKLRAEHFAQPMGSAMHDLCMKHCIDLHQEQIPEGINLGYFEYMGLGTVVDSLAAVKKLVFEEKKLSMDKLIAAIDADFEGYEDVRALLRSAPCYGNNDEYADAIGRDIDRISVEYGNKYSMSDLGIHNDVRYVPFTSHVPFGKVVSATPNGRTDGFPLSDGSSASHGADVNGPTAVLLSNCTTKNMGLRDRAARMLNIKFTPKCVEGEQGTEKLVSFIRTFCDLKLWHVQFNVVNKGTLVAAQKDPQKYRNLIVRIAGYSAYFVDLSPDLQNDLIARTEHDVM
notes: His-tagged, E. coli BL21
Km [6]: 6.3 ± 0.5 mM
kcat [6]: 12 ± 0.2 s⁻¹

From publication PMC6386719, “A glycyl radical enzyme enables hydrogen sulfide production by the human intestinal bacterium Bilophila wadsworthia” (Proceedings of the National Academy of Sciences of the …, 2019)
